Article PMC10702058, “Phase I dose escalation study and pilot efficacy analysis of LXI-15029, a novel mTOR dual inhibitor, in Chinese subjects with advanced malignant solid tumors” (BMC Cancer, 2023)
Read-outs that look alike come from different tables or passages of the source.

Key:
[1] = test system: advanced malignant solid tumors; assay: Investigator-assessed antitumor effect (RECIST 1.1: ORR, DCR, PFS)
Experimental: All safety, tolerance, PK, and antitumor data from each dose group were tabulated and summarized according to the statistical analysis plan. The statistical analysis of the study was descriptive. The continuous variables were described as mean ± standard deviation or median (minimum, maximum). […] The categorical variables were described as n (%). PFS was summarized using the Kaplan–Meier method. […] All data processing, summaries, and analyses were performed using SAS 9.4 (SAS Institute, Cary, NC, USA).

[2] = Plasma pharmacokinetics of LXI-15029 (LC-MS/MS, non-compartmental analysis); assay type: in vivo, human
Experimental: Blood samples for PK analysis of LXI-15029 were collected on day 1 (pre-dose, 20 min, 40 min, 1 h, 1.5 h, 2 h, 3 h, 4 h, 6 h, 8 h, 12 h, 24 h, and 48 h), cycle 1 day 8 (pre-dose), cycle 1 day 15 (pre-dose), and cycle 1 day 28 (pre-dose, 20 min, 40 min, 1 h, 1.5 h, 2 h, 3 h, 4 h, 6 h, 8 h, and 12 h). The blood samples were stored at -70°C until testing. The concentration of LXI-15029 in plasma was measured using the validated liquid chromatography-tandem mass spectrometry (LC–MS/MS) method. The concentration–time information of LXI-15029 was summarized based on pre-dose and post-dose data of each patient, to explore the linearity of exposure with single dose and steady-state situations, the time to reach steady state and the predictability of single to multiple doses PK. PK parameters were calculated separately for single and repeated doses using descriptive statistics. PK analysis was performed by Covance Central Laboratory using the validated software Phoenix WinNonlin Version 8.1 (Pharsight, Mountain View, CA). A standard non-compartmental method was used to calculate the peak plasma concentration (Cmax), time to reach the Cmax (tmax), the total area under the concentration–time curve (AUC0-∞), and the elimination half-life (t1/2).

[3] = 150-mg BID group, compared with preclinical data
[4] = human, plasma, oral, multiple dose, cycle 1 day 28, 10 mg BID (n = 3), geometric mean (coefficient of variation)
[5] = human, plasma, oral, multiple dose, cycle 1 day 28, 20 mg BID (n = 3), geometric mean (coefficient of variation)
[6] = human, plasma, oral, multiple dose, cycle 1 day 28, 40 mg BID (n = 3), geometric mean (coefficient of variation)

SMILES: CNC(=O)c1cccc(-c2ccc3c(N4C5CCC4COC5)nc(N4CCOC[C@@H]4C)nc3n2)c1 [LXI-15029]
- disease control rate (DCR) ([1]; 8/20 evaluable, 95% CI 21.7–60.6): 40%
- complete or partial response (CR or PR) ([1]; 20 evaluable participants): No participants achieved CR or PR
- median progression-free survival ([1]; evaluable patients, overall, from first dose): 29 days
- relationship between Ctrough and median PFS or DCR ([1]; exposure-efficacy analysis): no relationship was found
- DCR-dose correlation ([1]; in vivo): No DCR-dose correlation was observed
- patients with stable disease ([1]; of 20 evaluable): Eight
- duration of SD ([1]; one participant with fibrosarcoma, 20 mg BID): 344 days
- median PFS ([1]; patients with breast cancer, 95% CI: 0.89–4.63): 0.95 months
- median PFS ([1]; patients with sarcoma, 95% CI: 0.92–11.33): 0.97 months
- increase of Cmax and AUC versus dose proportionality ([2]; 10 to 150 mg, single dose day 1 and cycle 1 day 28): greater than the dose proportionality
- exposure relative to the NOAEL in dogs [2, 3]: fivefold higher
- exposure relative to the highest non-severely toxic dose (HNSTD) found in rats [2, 3]: threefold higher
- Cmax ss versus dose ([2]; cycle 1 day 28, 10 to 150 mg): increased with the dose increase
- Cmin ss, Cav ss, and AUCss versus dose ([2]; cycle 1 day 28, 10 to 150 mg, except for 80 mg): increased with the dose increase
- exposure (Cmax and AUC) versus dose ([2]; day 1, 10 to 150 mg, except for 80 mg): increased with the dose increase
- concentration at 28 day ([2]; human, plasma, oral, 10 mg BID, multiple dose, cycle 1 day 28, 10 mg BID (n = 3), geometric mean (coefficient of variation), read-out: Cav ss): 15.9 ng/mL
- Tmax at 28 day ([2]; human, plasma, oral, 10 mg, multiple dose, cycle 1 day 28, 10 mg BID (n = 3), median (min, max)): 1.02 h
- half-life ([2]; human, plasma, oral, 10 mg, single dose, cycle 1 day 1, 10 mg BID (n = 3), arithmetic mean ± standard deviation, read-out: t1/2 (converted)): 0.95 ± 0.205 h
- Tmax ([2]; human, plasma, oral, 10 mg, single dose, cycle 1 day 1, 10 mg BID (n = 3), median (min, max), read-out: Tmax): 0.98 h
- concentration at 28 day ([2]; human, plasma, oral, 20 mg BID, multiple dose, cycle 1 day 28, 20 mg BID (n = 3), geometric mean (coefficient of variation), read-out: Cav ss): 71.9 ng/mL
- concentration at 28 day ([2]; human, plasma, oral, 20 mg BID, multiple dose, cycle 1 day 28, 20 mg BID (n = 3), geometric mean (coefficient of variation), read-out: Cmin ss): 1.61 ng/mL
- Tmax at 28 day ([2]; human, plasma, oral, 20 mg, multiple dose, cycle 1 day 28, 20 mg BID (n = 3), median (min, max)): 1.47 h
- half-life ([2]; human, plasma, oral, 20 mg, single dose, cycle 1 day 1, 20 mg BID (n = 3), arithmetic mean ± standard deviation, read-out: t1/2 (converted)): 1.47 ± 0.268 h
- Tmax ([2]; human, plasma, oral, 20 mg, single dose, cycle 1 day 1, 20 mg BID (n = 3), median (min, max), read-out: Tmax): 1 h
- concentration at 28 day ([2]; human, plasma, oral, 40 mg BID, multiple dose, cycle 1 day 28, 40 mg BID (n = 3), geometric mean (coefficient of variation), read-out: Cav ss): 139 ng/mL
- concentration at 28 day ([2]; human, plasma, oral, 40 mg BID, multiple dose, cycle 1 day 28, 40 mg BID (n = 3), geometric mean (coefficient of variation), read-out: Cmin ss): 3.74 ng/mL
- Tmax at 28 day ([2]; human, plasma, oral, 40 mg, multiple dose, cycle 1 day 28, 40 mg BID (n = 3), median (min, max)): 0.67 h
- half-life ([2]; human, plasma, oral, 40 mg, single dose, cycle 1 day 1, 40 mg BID (n = 3), arithmetic mean ± standard deviation, read-out: t1/2 (converted)): 1.13 ± 0.324 h
- AUC(0-t) ([2]; human, plasma, oral, 40 mg, single dose, cycle 1 day 1, 40 mg BID (n = 3), geometric mean (coefficient of variation)): 1680 ng·h/mL
- Tmax ([2]; human, plasma, oral, 40 mg, single dose, cycle 1 day 1, 40 mg BID (n = 3), median (min, max), read-out: Tmax): 0.68 h
- concentration at 28 day ([2]; human, plasma, oral, 60 mg BID, multiple dose, cycle 1 day 28, 60 mg BID (n = 4), geometric mean (coefficient of variation), read-out: Cav ss): 477 ng/mL
- concentration at 28 day ([2]; human, plasma, oral, 60 mg BID, multiple dose, cycle 1 day 28, 60 mg BID (n = 4), geometric mean (coefficient of variation), read-out: Cmin ss): 35 ng/mL
- Tmax at 28 day ([2]; human, plasma, oral, 60 mg, multiple dose, cycle 1 day 28, 60 mg BID (n = 4), median (min, max)): 0.98 h
- half-life ([2]; human, plasma, oral, 60 mg, single dose, cycle 1 day 1, 60 mg BID (n = 4), arithmetic mean ± standard deviation, read-out: t1/2 (converted)): 2 ± 0.599 h
- Tmax ([2]; human, plasma, oral, 60 mg, single dose, cycle 1 day 1, 60 mg BID (n = 4), median (min, max), read-out: Tmax): 1.25 h
- concentration at 28 day ([2]; human, plasma, oral, 80 mg BID, multiple dose, cycle 1 day 28, 80 mg BID (n = 4), geometric mean (coefficient of variation), read-out: Cav ss): 435 ng/mL
- concentration at 28 day ([2]; human, plasma, oral, 80 mg BID, multiple dose, cycle 1 day 28, 80 mg BID (n = 4), geometric mean (coefficient of variation), read-out: Cmin ss): 6.41 ng/mL
- Tmax at 28 day ([2]; human, plasma, oral, 80 mg, multiple dose, cycle 1 day 28, 80 mg BID (n = 4), median (min, max)): 1.08 h
- half-life ([2]; human, plasma, oral, 80 mg, single dose, cycle 1 day 1, 80 mg BID (n = 4), arithmetic mean ± standard deviation, read-out: t1/2 (converted)): 1.33 ± 0.174 h
- Tmax ([2]; human, plasma, oral, 80 mg, single dose, cycle 1 day 1, 80 mg BID (n = 4), median (min, max), read-out: Tmax): 0.87 h
- concentration at 28 day ([2]; human, plasma, oral, 110 mg BID, multiple dose, cycle 1 day 28, 110 mg BID (n = 3), geometric mean (coefficient of variation), read-out: Cav ss): 1080 ng/mL
- concentration at 28 day ([2]; human, plasma, oral, 110 mg BID, multiple dose, cycle 1 day 28, 110 mg BID (n = 3), geometric mean (coefficient of variation), read-out: Cmin ss): 152 ng/mL
- Tmax ([2]; human, plasma, oral, 110 mg, multiple dose, cycle 1 day 28, 110 mg BID (n = 3), median (min, max), read-out: Tmax ss): 0.67 h
- half-life ([2]; human, plasma, oral, 110 mg, single dose, cycle 1 day 1, 110 mg BID (n = 3), arithmetic mean ± standard deviation, read-out: t1/2 (converted)): 1.48 ± 0.531 h
- Tmax ([2]; human, plasma, oral, 110 mg, single dose, cycle 1 day 1, 110 mg BID (n = 3), median (min, max), read-out: Tmax): 0.7 h
- concentration at 28 day ([2]; human, plasma, oral, 150 mg BID, multiple dose, cycle 1 day 28, 150 mg BID (n = 4), geometric mean (coefficient of variation), read-out: Cav ss): 2120 ng/mL
- concentration at 28 day ([2]; human, plasma, oral, 150 mg BID, multiple dose, cycle 1 day 28, 150 mg BID (n = 4), geometric mean (coefficient of variation), read-out: Cmin ss): 452 ng/mL
- Tmax ([2]; human, plasma, oral, 150 mg, multiple dose, cycle 1 day 28, 150 mg BID (n = 4), median (min, max), read-out: Tmax ss): 0.98 h
- half-life ([2]; human, plasma, oral, 150 mg, single dose, cycle 1 day 1, 150 mg BID (n = 4), arithmetic mean ± standard deviation, read-out: t1/2 (converted)): 1.94 ± 0.706 h
- Tmax ([2]; human, plasma, oral, 150 mg, single dose, cycle 1 day 1, 150 mg BID (n = 4), median (min, max), read-out: Tmax): 0.82 h
- half-life ([2]; human, plasma, oral, after multiple dosings, read-out: arithmetic mean of t1/2 across dose cohorts): 1.13 to 3.26 h
- half-life ([2]; human, plasma, oral, after single dosing, read-out: arithmetic mean of t1/2 across dose cohorts): 0.95 to 2 h
- Tmax ([2]; human, plasma, oral, cycle 1 day 28, dose range 10 to 150 mg, read-out: median range of Tmax ss): 0.67 to 1.47 h
- Tmax ([2]; human, plasma, oral, single dose on day 1, across dose groups, read-out: median range of Tmax): 0.68 to 1.25 h
- AUC [2, 4]: 191 ng·h/mL
- Cmax at 28 day [2, 4]: 115 ng/mL
- AUC [2, 5]: 863 ng·h/mL
- Cmax at 28 day [2, 5]: 350 ng/mL
- AUC [2, 6]: 1670 ng·h/mL
- Cmax at 28 day [2, 6]: 1010 ng/mL
